Measured values taken from PubChem BioAssay AID248 (DTP/NCI, 2004).
Where “and” joins values, the source holds several entries; their conditions need not be identical. Equal values may be shown once. Inconclusive results and toxic doses are left out.

Tested on: L1210 leukemia ip in BDF1 mice, survival T/C
Assay: NCI In Vivo Anticancer Drug Screen. Data for tumor model L1210 Leukemia (intraperitoneal) in B6D2F1 (BDF1) mice
Settings: endpoint: mean survival time, higher = longer survival
How it was run: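 Antitumor effect is assessed in tumor-bearing animals. Survival in the compound arm is compared with a vehicle-dosed control arm and expressed as their quotient.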

O=C(Nc1ccc(C2=NCCN2)cc1)Nc1cccc(NC(=O)Nc2ccc(C3=NCCN3)cc2)c1
T/C (dose: 7.5 mg/kg/injection, schedule: Q01DX Z (ip), vehicle: carboxymethylcellulose (CMC)): 119 % of control
T/C (dose: 7.5 mg/kg/injection, schedule: Q#A X Z (ip), vehicle: carboxymethylcellulose (CMC)): 180 % of control
T/C (dose: 15.0 mg/kg/injection, schedule: Q01DX Z (ip), vehicle: carboxymethylcellulose (CMC)): 189 % of control
T/C (dose: 15.0 mg/kg/injection, schedule: Q#A X Z (ip), vehicle: carboxymethylcellulose (CMC)): 215 % of control
T/C (dose: 22.5 mg/kg/injection, schedule: Q03DX Z (ip), vehicle: carboxymethylcellulose (CMC)): 122 % of control
T/C (dose: 30.0 mg/kg/injection, schedule: Q01DX Z (ip), vehicle: carboxymethylcellulose (CMC)): 206 % of control and 227 % of control and 315 % of control
T/C (dose: 30.0 mg/kg/injection, schedule: Q01DX Z (sc), vehicle: carboxymethylcellulose (CMC)): 101 % of control and 107 % of control
T/C (dose: 30.0 mg/kg/injection, schedule: Q#A X Z (ip), vehicle: carboxymethylcellulose (CMC)): 220 % of control
T/C (dose: 60.0 mg/kg/injection, schedule: Q01DX004 (im), vehicle: olive oil, sesame oil, peanut oil): 92 % of control
T/C (dose: 60.0 mg/kg/injection, schedule: Q01DX Z (ip), vehicle: carboxymethylcellulose (CMC)): 216 % of control and 255 % of control and 337 % of control
T/C (dose: 60.0 mg/kg/injection, schedule: Q01DX Z (sc), vehicle: carboxymethylcellulose (CMC)): 97 % of control and 102 % of control
T/C (dose: 60.0 mg/kg/injection, schedule: Q#A X Z (ip), vehicle: carboxymethylcellulose (CMC)): 234 % of control
T/C (dose: 62.5 mg/kg/injection, schedule: Q## X009 (oral), vehicle: saline): 98 % of control
T/C (dose: 74.0 mg/kg/injection, schedule: Q01DX Z (ip), vehicle: carboxymethylcellulose (CMC)): 280 % of control
T/C (dose: 90.0 mg/kg/injection, schedule: Q03DX Z (ip), vehicle: carboxymethylcellulose (CMC)): 227 % of control
T/C (dose: 120.0 mg/kg/injection, schedule: Q01DX004 (im), vehicle: olive oil, sesame oil, peanut oil): 102 % of control
T/C (dose: 120.0 mg/kg/injection, schedule: Q01DX Z (ip), vehicle: carboxymethylcellulose (CMC)): 225 % of control and 234 % of control and 331 % of control
T/C (dose: 120.0 mg/kg/injection, schedule: Q01DX Z (oral), vehicle: carboxymethylcellulose (CMC)): 98 % of control
T/C (dose: 120.0 mg/kg/injection, schedule: Q01DX Z (sc), vehicle: carboxymethylcellulose (CMC)): 101 % of control and 104 % of control
T/C (dose: 120.0 mg/kg/injection, schedule: Q#A X Z (ip), vehicle: carboxymethylcellulose (CMC)): 218 % of control
T/C (dose: 125.0 mg/kg/injection, schedule: Q## X010 (oral), vehicle: saline): 95 % of control
T/C (dose: 148.0 mg/kg/injection, schedule: Q01DX Z (ip), vehicle: carboxymethylcellulose (CMC)): 271 % of control
T/C (dose: 180.0 mg/kg/injection, schedule: Q03DX Z (ip), vehicle: carboxymethylcellulose (CMC)): 265 % of control
T/C (dose: 210.0 mg/kg/injection, schedule: Q07DX Z (ip), vehicle: carboxymethylcellulose (CMC)): 194 % of control
T/C (dose: 222.0 mg/kg/injection, schedule: Q01DX Z (ip), vehicle: carboxymethylcellulose (CMC)): 204 % of control
T/C (dose: 240.0 mg/kg/injection, schedule: Q01DX004 (im), vehicle: olive oil, sesame oil, peanut oil): 101 % of control
T/C (dose: 240.0 mg/kg/injection, schedule: Q01DX Z (ip), vehicle: carboxymethylcellulose (CMC)): 223 % of control and 260 % of control and 309 % of control
T/C (dose: 240.0 mg/kg/injection, schedule: Q01DX Z (oral), vehicle: carboxymethylcellulose (CMC)): 97 % of control
T/C (dose: 240.0 mg/kg/injection, schedule: Q01DX Z (sc), vehicle: carboxymethylcellulose (CMC)): 95 % of control and 105 % of control
T/C (dose: 240.0 mg/kg/injection, schedule: Q#A X Z (ip), vehicle: carboxymethylcellulose (CMC)): 182 % of control
T/C (dose: 250.0 mg/kg/injection, schedule: Q## X010 (oral), vehicle: saline): 102 % of control
T/C (dose: 300.0 mg/kg/injection, schedule: Q01DX001 (ip), vehicle: carboxymethylcellulose (CMC)): 172 % of control
T/C (dose: 333.0 mg/kg/injection, schedule: Q01DX Z (ip), vehicle: carboxymethylcellulose (CMC)): 178 % of control
T/C (dose: 360.0 mg/kg/injection, schedule: Q03DX Z (ip), vehicle: carboxymethylcellulose (CMC)): 253 % of control
T/C (dose: 420.0 mg/kg/injection, schedule: Q07DX Z (ip), vehicle: carboxymethylcellulose (CMC)): 190 % of control
T/C (dose: 480.0 mg/kg/injection, schedule: Q01DX004 (im), vehicle: olive oil, sesame oil, peanut oil): 106 % of control
T/C (dose: 480.0 mg/kg/injection, schedule: Q01DX Z (ip), vehicle: carboxymethylcellulose (CMC)): 177 % of control and 215 % of control
T/C (dose: 480.0 mg/kg/injection, schedule: Q01DX Z (oral), vehicle: carboxymethylcellulose (CMC)): 97 % of control
T/C (dose: 480.0 mg/kg/injection, schedule: Q01DX Z (sc), vehicle: carboxymethylcellulose (CMC)): 105 % of control and 108 % of control
T/C (dose: 500.0 mg/kg/injection, schedule: Q01DX Z (ip), vehicle: carboxymethylcellulose (CMC)): 156 % of control
T/C (dose: 500.0 mg/kg/injection, schedule: Q## X009 (oral), vehicle: saline): 98 % of control
T/C (dose: 720.0 mg/kg/injection, schedule: Q03DX Z (ip), vehicle: carboxymethylcellulose (CMC)): 252 % of control
T/C (dose: 840.0 mg/kg/injection, schedule: Q07DX Z (ip), vehicle: carboxymethylcellulose (CMC)): 227 % of control
T/C (dose: 960.0 mg/kg/injection, schedule: Q01DX Z (oral), vehicle: carboxymethylcellulose (CMC)): 97 % of control
T/C (dose: 1440.0 mg/kg/injection, schedule: Q03DX Z (ip), vehicle: carboxymethylcellulose (CMC)): 231 % of control
T/C (dose: 1680.0 mg/kg/injection, schedule: Q07DX Z (ip), vehicle: carboxymethylcellulose (CMC)): 239 % of control
T/C (dose: 1920.0 mg/kg/injection, schedule: Q01DX Z (oral), vehicle: carboxymethylcellulose (CMC)): 98 % of control
T/C (dose: 3360.0 mg/kg/injection, schedule: Q07DX Z (ip), vehicle: carboxymethylcellulose (CMC)): 300 % of control
